Measurements reported in ChEMBL document CHEMBL4000165, “Chemosensitizing effect of Paris Saponin I on Camptothecin and 10-hydroxycamptothecin in lung cancer cells via p38 MAPK, ERK, and Akt signaling pathways” (Eur J Med Chem, 2017).
Calls of active or inactive are those of the source. No cut-off for these calls is given here.

Columns and labels:
NCI-H460 [1] = test: Cytotoxicity against human NCI-H460 cells assessed as reduction in cell viability after 48 hrs by MTT assay; format: functional, cell-based; details: NCI-H460, 48 h
NCI-H1299 [2] = test: Cytotoxicity against human NCI-H1299 cells assessed as reduction in cell viability by measuring combinantion index at 0.3 to 0.6 uM after 48 hrs in presence of CPT by MTT assay; format: functional
NCI-H520 = test: Cytotoxicity against human NCI-H520 cells assessed as reduction in cell viability at 0.3 to 0.6 uM after 48 hrs in presence of CPT by MTT assay; format: functional, cell-based
NCI-H460 [3] = test: Cytotoxicity against human NCI-H460 cells assessed as reduction in cell viability by measuring combinantion index at 0.3 to 0.6 uM after 48 hrs in presence of CPT by MTT assay; format: functional
NCI-H1299 [4] = test: Cytotoxicity against human NCI-H1299 cells assessed as reduction in cell viability at 0.3 to 0.6 uM after 48 hrs in presence of HCPT by MTT assay; format: functional, cell-based
NCI-H460 [5] = test: Cytotoxicity against human NCI-H460 cells assessed as reduction in cell viability at 0.3 to 0.6 uM after 48 hrs in presence of HCPT by MTT assay; format: functional, cell-based
NCI-H446 [6] = test: Cytotoxicity against human NCI-H446 cells assessed as reduction in cell viability at 0.3 to 0.6 uM after 48 hrs in presence of HCPT by MTT assay; format: functional, cell-based
NCI-H460 [7] = test: Induction of apoptosis in human NCI-H460 cells at 0.6 uM up to 20 mins in presence of HCPT by acridine orange/ ethidium bromide staining based fluorescence microscopic method relative to control; format: functional
NCI-H446 [8] = test: Induction of apoptosis in human NCI-H446 cells at 0.6 uM up to 20 mins in presence of CPT by acridine orange/ ethidium bromide staining based fluorescence microscopic method relative to control; format: functional
NCI-H446 [9] = test: Induction of apoptosis in human NCI-H446 cells at 0.6 uM up to 20 mins in presence of HCPT by acridine orange/ ethidium bromide staining based fluorescence microscopic method relative to control; format: functional
NCI-H1299 [10] = test: Induction of apoptosis in human NCI-H1299 cells assessed as increase in total apoptotic cells at 0.3 uM after 48 hrs in presence of CPT by Annexin-V FITC/propidium iodide staining based flow cytometry; format: functional, cell-based
NCI-H1299 [11] = test: Induction of apoptosis in human NCI-H1299 cells assessed as increase in pro-apoptotic cells at 0.3 uM after 48 hrs in presence of HCPT by Annexin-V FITC/propidium iodide staining based flow cytometry; format: functional, cell-based
NCI-H446 [12] = test: Induction of apoptosis in human NCI-H446 cells at 0.6 uM in presence of HCPT by Annexin-V FITC/propidium iodide staining based flow cytometry; format: functional, cell-based; details: TDE = time-dependent effect
NCI-H446 [13] = test: Induction of apoptosis in human NCI-H446 cells assessed as activation of caspase-3/7 at 0.6 uM after 48 hrs in presence of CPT by luciferase reporter gene assay; format: functional, cell-based
NCI-H460 [14] = test: Induction of apoptosis in human NCI-H460 cells assessed as activation of caspase-3/7 at 0.6 uM after 48 hrs in presence of CPT by luciferase reporter gene assay; format: functional, cell-based
NCI-H1299 [15] = test: Induction of apoptosis in human NCI-H1299 cells assessed as increase in caspase-9 expression at 0.3 uM in presence of CPT by Western blot method; format: functional, cell-based
NCI-H460 [16] = test: Induction of apoptosis in human NCI-H460 cells assessed as increase in caspase-9 expression at 0.6 uM in presence of CPT by Western blot method; format: functional, cell-based
NCI-H1299 [17] = test: Induction of apoptosis in human NCI-H1299 cells assessed as increase in caspase-9 expression at 0.3 uM in presence of HCPT by Western blot method; format: functional, cell-based
NCI-H446 [18] = test: Induction of apoptosis in human NCI-H446 cells assessed as increase in caspase-9 expression at 0.6 uM in presence of HCPT by Western blot method; format: functional, cell-based
NCI-H446 [19] = test: Induction of apoptosis in human NCI-H446 cells assessed as downregulation of Bcl2 expression at 0.6 uM in presence of CPT by Western blot method; format: functional, cell-based
NCI-H1299 [20] = test: Decrease in p38 MAPK protein expression in human NCI-H1299 cells at 0.3 uM in presence of CPT by Western blot method; format: functional, cell-based
[21] = biological target: T1, MAP kinase p38 (Homo sapiens) (UniProt O15264+Q15759+Q16539+P53778); test: Increase in p38 MAPK phosphorylation in human NCI-H1299 cells at 0.3 uM in presence of CPT by Western blot method; format: cell-based
NCI-H1299 [22] = test: Effect on ERK1/2 protein expression in human NCI-H1299 cells at 0.3 uM in presence of CPT by Western blot method; format: functional, cell-based
NCI-H1299 [23] = test: Effect on ERK1/2 protein expression in human NCI-H1299 cells at 0.3 uM in presence of HCPT by Western blot method; format: functional, cell-based
Homo sapiens [24] = organism: Homo sapiens; test: Decrease in Akt phosphorylation in human NCI-H460 cells at 0.6 uM in presence of CPT by Western blot method; format: cell-based
[25] = biological target: T2, Mitogen-activated protein kinase; ERK1/ERK2 (Homo sapiens) (UniProt P27361+P28482); test: Decrease in ERK1/2 phosphorylation in human NCI-H460 cells at 0.6 uM in presence of CPT by Western blot method; format: cell-based
T2 sequence (P27361 whole entry, looked up): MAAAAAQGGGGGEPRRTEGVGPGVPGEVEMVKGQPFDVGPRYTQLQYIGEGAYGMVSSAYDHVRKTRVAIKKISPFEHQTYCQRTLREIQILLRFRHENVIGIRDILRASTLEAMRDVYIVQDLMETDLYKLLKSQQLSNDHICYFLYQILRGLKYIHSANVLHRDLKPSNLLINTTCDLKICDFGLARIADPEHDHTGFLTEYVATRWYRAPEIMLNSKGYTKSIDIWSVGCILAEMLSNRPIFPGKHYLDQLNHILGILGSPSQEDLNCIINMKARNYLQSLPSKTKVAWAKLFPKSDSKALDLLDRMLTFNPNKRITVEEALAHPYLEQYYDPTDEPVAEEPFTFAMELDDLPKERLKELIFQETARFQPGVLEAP
T2 sequence (P28482 whole entry, looked up): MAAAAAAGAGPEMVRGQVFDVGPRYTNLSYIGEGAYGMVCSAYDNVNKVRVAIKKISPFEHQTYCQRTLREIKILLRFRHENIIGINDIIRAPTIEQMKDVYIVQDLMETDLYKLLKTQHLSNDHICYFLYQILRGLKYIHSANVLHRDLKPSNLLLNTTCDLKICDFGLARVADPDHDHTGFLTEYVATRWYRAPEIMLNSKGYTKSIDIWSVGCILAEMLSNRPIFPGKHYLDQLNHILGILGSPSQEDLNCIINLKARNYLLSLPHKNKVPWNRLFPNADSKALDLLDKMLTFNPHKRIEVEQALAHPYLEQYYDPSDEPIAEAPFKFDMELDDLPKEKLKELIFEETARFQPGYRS

[26] = biological target: c-Jun N-terminal kinase, JNK (Homo sapiens) (UniProt P45983+P53779+P45984); test: Increase in JNK phosphorylation in human NCI-H460 cells at 0.6 uM in presence of HCPT by Western blot method; format: cell-based
Homo sapiens [27] = organism: Homo sapiens; test: Effect on Akt phosphorylation in human NCI-H446 cells at 0.6 uM in presence of CPT by Western blot method; format: cell-based
NCI-H446 [28] = test: Effect on ERK1/2 protein expression in human NCI-H446 cells at 0.6 uM in presence of HCPT by Western blot method; format: functional, cell-based
NCI-H446 [29] = test: Effect on ERK1/2 protein expression in human NCI-H446 cells at 0.6 uM in presence of CPT by Western blot method; format: functional, cell-based
[30] = biological target: T2, Mitogen-activated protein kinase; ERK1/ERK2 (Homo sapiens); test: Effect on ERK1/2 phosphorylation in human NCI-H446 cells at 0.6 uM in presence of HCPT by Western blot method; format: cell-based
NCI-H446 [31] = test: Effect on Akt protein expression in human NCI-H446 cells at 0.6 uM in presence of CPT by Western blot method; format: functional, cell-based
NCI-H446 [32] = test: Effect on p38 MAPK protein expression in human NCI-H446 cells at 0.6 uM in presence of CPT by Western blot method; format: functional, cell-based
[33] = biological target: T1, MAP kinase p38 (Homo sapiens); test: Effect on p38 MAPK phosphorylation in human NCI-H446 cells at 0.6 uM in presence of HCPT by Western blot method; format: cell-based
[34] = biological target: T1, MAP kinase p38 (Homo sapiens); test: Effect on p38 MAPK phosphorylation in human NCI-H446 cells at 0.6 uM in presence of CPT by Western blot method; format: cell-based

**Q.** For C[C@@H]1CC[C@@]2(OC1)O[C@H]1C[C@H]3[C@@H]4CC=C5C[C@@H](O[C@@H]6O[C@H](CO)[C@@H](O[C@@H]7O[C@@H](CO)[C@H](O)[C@H]7O)[C@H](O)[C@H]6O[C@@H]6O[C@@H](C)[C@H](O)[C@@H](O)[C@H]6O)CC[C@]5(C)[C@H]4CC[C@]3(C)[C@H]1[C@@H]2C, which IC50 (NCI-H460 [1]) is on record?
**A.** The IC50 was less than 1000 nM.

**Q.** And the CI (NCI-H1299 [2])?
**A.** Its CI is less than 1.

**Q.** And the Activity (NCI-H520)?
**A.** The Activity was “Active”.

**Q.** What about the CI (NCI-H460 [3]) of the same compound?
**A.** Its CI is less than 1.

**Q.** What about the Activity (NCI-H1299 [4]) of the same compound?
**A.** Its Activity is “Active”.

**Q.** And the Activity (NCI-H460 [5])?
**A.** Its Activity is “Active”.

**Q.** What about the Activity (NCI-H446 [6]) of the same compound?
**A.** The Activity was “Active”.

**Q.** What about the “fold change (FC)” value (NCI-H460 [7]) of the same compound?
**A.** The value was 2.

**Q.** And the “fold change (FC)” value (NCI-H446 [8])?
**A.** The value was 2.

**Q.** What about the “fold change (FC)” value (NCI-H446 [9]) of the same compound?
**A.** The value was 2.

**Q.** What about the Activity (NCI-H1299 [10]) of the same compound?
**A.** The Activity was “Active”.

**Q.** What about the Activity (NCI-H1299 [11]) of the same compound?
**A.** Its Activity is “Active”.

**Q.** And the Activity (NCI-H446 [12])?
**A.** Its Activity is “Tde”.

**Q.** And the Activity (NCI-H446 [13])?
**A.** Its Activity is “Active”.

**Q.** And the Activity (NCI-H460 [14])?
**A.** The Activity was “Active”.

**Q.** What about the Activity (NCI-H1299 [15]) of the same compound?
**A.** The Activity was “Active”.

**Q.** What about the Activity (NCI-H460 [16]) of the same compound?
**A.** The Activity was “Active”.

**Q.** And the Activity (NCI-H1299 [17])?
**A.** The Activity was “Active”.

**Q.** What about the Activity (NCI-H446 [18]) of the same compound?
**A.** Its Activity is “Active”.

**Q.** And the Activity (NCI-H446 [19])?
**A.** The Activity was “Active”.

**Q.** And the Activity (NCI-H1299 [20])?
**A.** Its Activity is “Active”.

**Q.** What about the Activity [21] of the same compound?
**A.** Its Activity is “Active”.

**Q.** And the Activity (NCI-H1299 [22])?
**A.** Its Activity is “inactive”.

**Q.** What about the Activity (NCI-H1299 [23]) of the same compound?
**A.** Its Activity is “inactive”.

**Q.** And the Activity (Homo sapiens [24])?
**A.** The Activity was “Active”.

**Q.** And the Activity [25]?
**A.** The Activity was “Active”.

**Q.** And the Activity [26]?
**A.** The Activity was “Active”.

**Q.** And the Activity (Homo sapiens [27])?
**A.** Its Activity is “Active”.

**Q.** What about the Activity (NCI-H446 [28]) of the same compound?
**A.** Its Activity is “Active”.

**Q.** And the Activity (NCI-H446 [29])?
**A.** The Activity was “Active”.

**Q.** What about the Activity [30] of the same compound?
**A.** The Activity was “Active”.

**Q.** What about the Activity (NCI-H446 [31]) of the same compound?
**A.** Its Activity is “inactive”.

**Q.** What about the Activity (NCI-H446 [32]) of the same compound?
**A.** The Activity was “inactive”.

**Q.** What about the Activity [33] of the same compound?
**A.** The Activity was “inactive”.

**Q.** And the Activity [34]?
**A.** The Activity was “inactive”.
